Laboratory results: patent US11497751B2, “Modulators of Rho-associated protein kinase” (Redx Pharma PLC, priority 2018, dated 2022)

Each compound was assayed against T1, N-terminal 6His-tagged ROCK2 catalytic domain 11-552 (Homo sapiens, UniProt O75116) (assay: ROCK2 binding activity: ROCK2 inhibition, ADP-Glo Kinase Assay). Conditions: 1.25 nM ROCK2, 100 μM long S6 peptide, 20 μM ATP; 1 hour pre-incubation; read-out: ADP-Glo kinase activity assay ROCK2 Category.
T1 construct: N-terminal 6His-tagged ROCK2 catalytic domain 11-552; 6His (N); purchased Dundee University, UK; host or cells: baculovirus expression system
T1 sequence (O75116 11-552): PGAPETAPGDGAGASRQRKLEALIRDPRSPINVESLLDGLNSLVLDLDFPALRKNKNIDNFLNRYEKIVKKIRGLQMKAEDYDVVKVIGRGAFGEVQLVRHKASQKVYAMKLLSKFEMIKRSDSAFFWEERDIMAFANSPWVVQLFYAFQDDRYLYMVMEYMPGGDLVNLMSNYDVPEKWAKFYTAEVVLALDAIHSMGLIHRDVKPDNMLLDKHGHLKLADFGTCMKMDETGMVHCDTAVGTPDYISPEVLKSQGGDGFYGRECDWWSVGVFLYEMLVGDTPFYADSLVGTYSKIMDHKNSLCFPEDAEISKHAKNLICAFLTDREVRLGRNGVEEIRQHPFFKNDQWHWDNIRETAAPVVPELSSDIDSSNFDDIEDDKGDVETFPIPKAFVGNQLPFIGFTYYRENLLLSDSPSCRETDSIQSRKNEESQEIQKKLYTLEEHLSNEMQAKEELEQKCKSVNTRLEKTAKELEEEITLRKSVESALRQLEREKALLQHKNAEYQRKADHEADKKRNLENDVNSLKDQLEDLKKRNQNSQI
Assay type: biochemical
Procedure: Assay for ROCK2 inhibition was performed using the protein construct N-terminal 6His-tagged ROCK2 catalytic domain 11-552 (Dundee University, UK). Protein was purified from a baculovirus expression system. Long S6 peptide ([…]) was used as substrate. Kinase reactions were carried out in 15 μl volume in a 96-well plate (black, half area) using 1.25 nM constitutively active ROCK2 kinase, 100 μM long S6 peptide, 20 μM ATP and test compound in DMSO (or DMSO only for controls). The final concentration of DMSO was 1%. Assay buffer was 50 mM HEPES pH 7.5 supplemented with 0.2 mM EDTA, 10 mM magnesium acetate, 0.01% Tween-20, 1 mM DTT and 0.01% BSA. Test compounds were pre-incubated with ROCK2 kinase for 1 hour before addition of ATP and long S6 peptide. After incubation for a further 1 hour, the amount of ADP produced was measured using ADP-Glo Kinase Assay (Promega) as per manufacturer's instructions. The luminescence was measured on a PHERAstar FS (BMG Labtech). The concentration of test compound required to inhibit ADP production by 50% (the IC50) was calculated using a four-parameter logistic function with software by Dotmatics.
The category “+” refers to compounds with a ROCK2 IC50 value of >10 μM. The category “++” refers to compounds with a ROCK2 IC50 value of 10 to 3 μM. The category “+++” refers to compounds with a ROCK2 IC50 value of 3 to 0.3 μM. The category “++++” refers to compounds with a ROCK2 IC50 value of <0.3 μM.

Compound	IC50
COc1cc(-c2nc(Nc3ccc4[nH]ncc4c3Cl)n(C)n2)ccc1C(=O)NC1CCN(C)C1 (stereo not shown) [Example 202]	< 300 nM
CCC(CO)NC(=O)c1ccc(-c2nc(Nc3ccc4[nH]ncc4c3C3CC3)n(C)n2)cc1 (stereo not shown) [Example 310]	< 300 nM
Cn1nc(-c2c[nH]c3ccncc23)nc1Nc1ccc2[nH]ncc2c1Cl [Example 121]	3000 to 10000 nM
COc1cc(-c2nc(Nc3ccc4[nH]ncc4c3Cl)n(C)n2)ccc1OCC(=O)NC(C)c1ccccn1 (stereo not shown) [Example 215]	< 300 nM
CC(C)NS(=O)(=O)COc1ccc(-c2n[nH]c(Nc3ccc4[nH]ncc4c3)n2)cc1 [Example 226, 1-[4-[5-(1H-indazol-5-ylamino)-4H-1,2,4-triazol-3-yl]phenoxy]-N-isopropyl-methanesulfonamide]	< 300 nM
COc1cc(-c2nc(Nc3cc4cn[nH]c4cc3Cl)n(C)n2)ccc1C(=O)NCC(F)(F)F [Example 144]	3000 to 10000 nM
CCNC(=O)c1ccc(-c2nc(Nc3ccc4[nH]ncc4c3Cl)n(C)n2)cc1 [Example 253]	< 300 nM
CCNC(=O)c1ccc(-c2nc(Nc3ccc4[nH]ncc4c3CC)n(C)n2)cc1OC [Example 313]	< 300 nM
CC(C)CC(=O)NCCOc1ccc(-c2nnc(Nc3ccc4[nH]ncc4c3)[nH]2)cc1 [Example 223]	3000 to 10000 nM
CC(C)C[C@@H](CO)NC(=O)c1ccc(-c2nc(Nc3ccc4[nH]ncc4c3C3CC3)n(C)n2)cc1 [Example 309]	< 300 nM
Cn1nc(-c2ccc(C(=O)NCC(C)(C)C)cc2)nc1Nc1ccc2[nH]ncc2c1C1CC1 [Example 289]	< 300 nM
Cn1nc(-c2ccc(C(=O)NCC(F)(F)F)cc2)nc1Nc1ccc2[nH]ncc2c1Cl [Example 171]	< 300 nM
CS(=O)(=O)NC(=O)COc1ccc(-c2nnc(Nc3ccc4[nH]ncc4c3)[nH]2)cc1 [Example 37]	300 to 3000 nM
CC(C)NC(=O)N1CCc2cc(-c3nc(Nc4ccc5[nH]ncc5c4Cl)n(C)n3)ccc2C1 [Example 54]	< 300 nM
CN1CCc2cc(-c3nc(Nc4ccc5[nH]ncc5c4Cl)n(C)n3)ccc2C1=O [Example 97]	< 300 nM
Cc1cc(OCC(=O)NC(C)C)ccc1-c1nc(Nc2ccc3[nH]ncc3c2Cl)n(C)n1 [Example 354]	< 300 nM
CCNC(=O)c1ccc(-c2nc(Nc3ccc4[nH]ncc4c3Cl)n(C)n2)c2cccnc12 [Example 373]	300 to 3000 nM
CC(C)NC(=O)COc1ccc(-c2nc(Nc3ccc4[nH]ncc4c3Cl)n(C)n2)c(Cl)c1 [Example 352]	< 300 nM
COc1cc(-c2nc(Nc3ccc4[nH]ncc4c3Cl)n(CC(C)C)n2)ccc1OCC(=O)NC(C)C [Example 436]	< 300 nM
CC(C)NC(=O)CCn1ccc(-c2nnc(Nc3ccc4[nH]ncc4c3)[nH]2)cc1=O [Example 33]	> 10000 nM
COc1cc(OCC(=O)NC(C)C)ccc1-c1nc(Nc2ccc3[nH]ncc3c2)n(C)n1 [Example 404]	< 300 nM
CCNC(=O)c1ccc(-c2nc(Nc3ccc4[nH]ncc4c3C3CC3)n(C)n2)cc1 [Example 251, 4-[5-[(4-cyclopropyl-1H-indazol-5-yl)amino]-1-methyl-1,2,4-triazol-3-yl]-N-ethyl-benzamide]	< 300 nM
COc1cc(-c2nnc(Nc3ccc4[nH]ncc4c3)[nH]2)ccc1OCC(=O)NC(C)C [Example 8]	< 300 nM
CCNC(=O)c1ccc(-c2nc(Nc3ccc4[nH]ncc4c3Cl)n(C)n2)cc1C [Example 346]	< 300 nM
COc1cc(-c2nc(Nc3ccc4[nH]ncc4c3F)n(C)n2)ccc1C(=O)NC(C)(C)C [Example 336]	< 300 nM
CN(C)CCNC(=O)c1ccc(-c2nc(Nc3ccc4[nH]ncc4c3Cl)n(C)n2)cc1 [Example 94]	< 300 nM

Compound	IC50
CCNC(=O)c1c(F)cc(-c2nc(Nc3ccc4[nH]ncc4c3Cl)n(C)n2)cc1F [Example 361]	300 to 3000 nM
CCC(=O)Nc1ccc(-c2nc(Nc3ccc4[nH]ncc4c3Cl)n(C)n2)cc1OC [Example 83]	< 300 nM
Cn1nc(-c2ccc(C(N)=O)cc2)nc1Nc1ccc2[nH]ncc2c1Cl [Example 131]	< 300 nM
CC(C)C(=O)N1CCc2cc(-c3nc(Nc4ccc5[nH]ncc5c4Cl)n(C)n3)ccc2C1 [Example 236, 1-[6-[5-[(4-chloro-1H-indazol-5-yl)amino]-1-methyl-1,2,4-triazol-3-yl]-3,4-dihydro-1H-isoquinolin-2-yl]-2-methyl-propan-1-one]	< 300 nM
CC(C)NC(=O)COc1ccc(-c2nc(Nc3ccc4[nH]ncc4c3Cl)n(C)n2)cc1Cl [Example 472]	< 300 nM
O=C(COc1ccc(-c2nnc(Nc3ccc4[nH]ncc4c3)[nH]2)cc1)NC1CCOC1 (stereo not shown) [Example 159]	300 to 3000 nM
Cn1nc(-c2ccc(C(=O)NC3CC3)cc2)nc1Nc1ccc2[nH]ncc2c1C1CC1 [Example 344, N-Cyclopropyl-4-[5-[(4-cyclopropyl-1H-indazol-5-yl)amino]-1-methyl-1,2,4-triazol-3-yl]benzamide]	< 300 nM
Cn1nc(-c2ccccc2O)nc1Nc1ccc2[nH]ncc2c1Cl [Example 89]	< 300 nM
Cc1cc(-c2nc(Nc3ccc4[nH]ncc4c3Cl)n(C)n2)ccc1C(=O)NCC(F)(F)F [Example 366]	< 300 nM
CC(C)NC(=O)COc1ccc(-c2nnc(Nc3ccc4[nH]ncc4c3)n2-c2ccccn2)cc1 [Example 148]	< 300 nM
CNC(=O)Cc1ccc(-c2nc(Nc3ccc4[nH]ncc4c3Cl)n(C)n2)cc1OC [Example 57]	300 to 3000 nM
CC(C)NC(=O)COc1ccc(-c2nc(Nc3ccc4[nH]ncc4c3)n(-c3ccccc3F)n2)cc1 [Example 146]	< 300 nM
COc1cc(-c2nc(Nc3ccc4[nH]ncc4c3)n(CCN3CCCCC3)n2)ccc1OCC(=O)NC(C)C [Example 445]	< 300 nM
COc1cc(-c2nc(Nc3ccc4[nH]ncc4c3)n(C)n2)ccc1OCC(=O)NC(C)C [Example 167]	< 300 nM
CCn1nc(-c2ccc(C(=O)NCC(F)(F)F)c(OC)c2)nc1Nc1ccc2[nH]ncc2c1C1CC1 [Example 441]	< 300 nM
Cn1nc(-c2ccco2)nc1Nc1ccc2[nH]ncc2c1Cl [Example 96]	300 to 3000 nM
COC(=O)[C@H](CC(C)C)NC(=O)c1ccc(-c2nc(Nc3ccc4[nH]ncc4c3C3CC3)n(C)n2)cc1 [Example 302]	< 300 nM
Cn1nc(-c2ccc(C(=O)NCC3CCCO3)cc2)nc1Nc1ccc2[nH]ncc2c1Cl (stereo not shown) [Example 106]	< 300 nM
CC(C)NC(=O)COc1ccc(-c2nc(Nc3ccc4[nH]ncc4c3Cl)n(C)n2)c(F)c1F [Example 362]	< 300 nM
CCNC(c1ccc(-c2nc(Nc3ccc4[nH]ncc4c3C3CC3)n(C)n2)cc1)C(F)(F)F (stereo not shown) [Example 386]	300 to 3000 nM
COc1cc(-c2nc(Nc3ccc4[nH]ncc4c3C)n(CC(C)C)n2)ccc1C(=O)NCC(F)(F)F [Example 455]	< 300 nM
Cn1nc(-c2ccc(C(=O)NC3CCCCC3O)cc2)nc1Nc1ccc2[nH]ncc2c1C1CC1 (stereo not shown) [Example 305]	< 300 nM
CN1CCc2cc(-c3nc(Nc4ccc5[nH]ncc5c4)n(C)n3)ccc2C1 [Example 414]	3000 to 10000 nM
COc1cc(-c2nc(Nc3ccc4[nH]ncc4c3C)n(C)n2)ccc1OCC(=O)NC1CCNC1 (stereo not shown) [Example 141]	< 300 nM
COc1cccc(-c2nnc(Nc3ccc4[nH]ncc4c3)[nH]2)c1 [Example 2]	300 to 3000 nM
CCNC(=O)c1c(F)cc(-c2nc(Nc3ccc4[nH]ncc4c3)n(C)n2)cc1F [Example 410]	300 to 3000 nM
